Source: ChEMBL document CHEMBL1201862, “PubChem BioAssay data set” (2004)
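Growth conditions: 96-well plates. Treatment: test compound, 48 hours, 5 concentrations. Analysis: linear interpolation between bracketing concentrations; unreached endpoints set to highest concentration. At the GI50, growth is halved.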 Calls of active or inactive are those of the source. No stated cut-off is given here; in the data, active = GI50 up to about 1.1 µM and inactive = higher.

How the values were obtained:
Test in all cases: NCI anticancer screen, dose series, 48 h
[1] = test system: 786-0
[2] = test system: NCI-H23
[3] = test system: SNB-75
[4] = test system: SK-MEL-5
[5] = test system: CCRF-CEM
[6] = test system: HT-29
[7] = test system: TK-10
[8] = test system: MDA-N
[9] = test system: LOX IMVI
[10] = test system: A549
[11] = test system: DU-145
[12] = test system: SK-OV-3
[13] = test system: MDA-MB-231
[14] = test system: NCI-H226
[15] = test system: ACHN
[16] = test system: SK-MEL-2
[17] = test system: U-251
[18] = test system: SNB-19

Measured: GI50

O=C1Nc2ccc([N+](=O)[O-])cc2/C1=N/NC(=S)Nc1ccccc1
inactive: [1] 5.43 µM | [2] 9.33 µM | [3] 7.57 µM | [4] 2.9 µM | [5] 2.16 µM | [6] 5.37 µM | [7] 6.11 µM | [8] 6.35 µM | [9] 9.46 µM | [10] 5.05 µM | [11] 11.8 µM | [12] 14 µM | [13] 12.3 µM | [14] 18.5 µM | [15] 3.23 µM | [16] 11.9 µM | [17] 4.93 µM | [18] 5.35 µM

Cc1ccc(C(=O)Nc2ccc(CP(=O)(O)O)cc2)cc1NC(=O)c1cccc(NC(=O)Nc2cccc(C(=O)Nc3cc(C(=O)Nc4ccc(CP(=O)(O)O)cc4)ccc3C)c2)c1
inactive: [1] > 100 µM | [2] > 100 µM | [3] > 100 µM | [4] > 100 µM | [5] > 100 µM | [6] > 100 µM | [7] > 100 µM | [8] > 100 µM | [9] > 100 µM | [10] > 100 µM | [11] > 100 µM | [12] > 100 µM | [13] > 100 µM | [14] > 100 µM | [15] > 100 µM | [16] > 100 µM | [17] > 100 µM | [18] > 100 µM

Cc1nc2c(nc1C)-c1c(c3c(n1Cc1ccccc1)C(=O)CCC3)C(=O)C2=O
inactive: [1] 3.42 µM | [2] 3.69 µM | [3] 3.48 µM | [4] 6.34 µM | [5] 3.03 µM | [6] 4.65 µM | [7] 18.8 µM | [8] 2.21 µM | [9] 3.14 µM | [10] 3.93 µM | [11] 5.08 µM | [12] 18.9 µM | [13] 3.61 µM | [14] 21.4 µM | [15] 2.07 µM | [16] 5.08 µM | [17] 2.9 µM | [18] 7.96 µM

Cn1c(S)nc(C(N)=O)c1N
inactive: [1] > 100 µM | [2] > 100 µM | [3] > 100 µM | [4] > 100 µM | [5] > 100 µM | [6] > 100 µM | [7] > 100 µM | [8] > 100 µM | [9] > 100 µM | [10] > 100 µM | [11] > 100 µM | [12] > 100 µM | [13] > 100 µM | [14] > 100 µM | [15] > 100 µM | [16] > 100 µM | [17] > 100 µM | [18] > 100 µM

CSc1nc(Cl)c(Br)c(Nc2cnc(O)nc2O)n1
inactive: [1] 13.4 µM | [2] 17.3 µM | [3] 17.7 µM | [4] 19.6 µM | [5] 17.7 µM | [6] 15.8 µM | [7] 14.7 µM | [8] 23 µM | [9] 19.4 µM | [10] 19.2 µM | [11] 15.6 µM | [12] 19.4 µM | [13] 13.6 µM | [14] 20.1 µM | [15] 18.7 µM | [16] 17.5 µM | [17] 20.2 µM | [18] 20.2 µM

O=C1CCCCC1C(O)(C(F)(F)F)C(F)(F)Cl (configuration not stated)
inactive: [1] > 10 µM | [2] > 10 µM | [3] > 10 µM | [4] > 10 µM | [5] > 10 µM | [6] > 10 µM | [7] > 10 µM | [8] > 10 µM | [9] > 10 µM | [10] > 10 µM | [11] > 10 µM | [12] > 10 µM | [13] > 10 µM | [14] > 10 µM | [15] > 10 µM | [16] > 10 µM | [17] > 10 µM | [18] > 10 µM

CCOC(=O)/C=C(/C(=O)OCC)n1cc(C)c(=O)n(Cc2cnnn2COCCOC(C)=O)c1=O
inactive: [1] 7.31 µM | [2] 15.8 µM | [3] 24.9 µM | [4] 20.7 µM | [5] 2.17 µM | [6] 13.9 µM | [7] 5.24 µM | [8] 23.1 µM | [9] 14.8 µM | [10] 50.4 µM | [11] 24.5 µM | [12] > 100 µM | [13] 16 µM | [14] 17.8 µM | [15] 6.05 µM | [16] 28.4 µM | [17] 20.4 µM | [18] > 58.5 µM

C[N+]1(C)CC=C(N2CCOCC2)CC1
inactive: [1] > 10 µM | [2] > 10 µM | [3] > 10 µM | [4] > 10 µM | [5] > 10 µM | [6] > 10 µM | [7] > 10 µM | [8] > 10 µM | [9] > 10 µM | [10] > 10 µM | [11] > 10 µM | [12] > 10 µM | [13] > 10 µM | [14] > 10 µM | [15] > 10 µM | [16] > 10 µM | [17] > 10 µM | [18] > 10 µM

CCOC(=O)Cn1c(=O)c2nc(SC)sc2n(-c2ccc(C)cc2)c1=S
inactive: [1] 18.1 µM | [2] > 49 µM | [3] 9.71 µM | [4] > 100 µM | [5] > 100 µM | [6] > 87.3 µM | [7] 36.7 µM | [8] > 100 µM | [9] > 100 µM | [10] > 60.4 µM | [11] 98.4 µM | [12] 45.8 µM | [13] 52.7 µM | [14] 23.8 µM | [15] 48.1 µM | [16] 23.7 µM | [17] 24.5 µM | [18] 20.4 µM

CC(=O)OC12OC(C)(C3C(=O)N(c4ccccc4)C(=O)C31)N(c1ccccc1)C2=O (configuration not stated)
inactive: [1] > 100 µM | [2] > 100 µM | [3] > 100 µM | [4] > 100 µM | [5] > 100 µM | [6] > 100 µM | [7] > 100 µM | [8] > 100 µM | [9] > 100 µM | [10] > 100 µM | [11] > 100 µM | [12] > 100 µM | [13] > 100 µM | [14] > 100 µM | [15] > 100 µM | [16] > 100 µM | [17] > 100 µM | [18] > 100 µM

CN(C)/C=C/C=C(/C=N/S(=O)(=O)C(F)(F)F)C1C=CN(S(=O)(=O)C(F)(F)F)C=C1
inactive: [1] 45.8 µM | [2] 23.3 µM | [3] 16.6 µM | [4] 23.5 µM | [5] 27.1 µM | [6] 27.5 µM | [7] 36.6 µM | [8] 36.7 µM | [9] 42.8 µM | [10] 32.4 µM | [11] 37.2 µM | [12] 28.4 µM | [13] 31.1 µM | [14] 26 µM | [15] 28.8 µM | [16] 24.5 µM | [17] 37.6 µM
